Laboratory results taken from PubChem BioAssay AID1259407 (Chemical Carcinogenesis Research Information System (CCRIS), 2018).
The source made the active and inactive calls. How the calls were made is not given here.

Test system: CCRIS mutagenicity, Ames/micronucleus/aberration tests
Test: CCRIS mutagenicity studies
[1] = Test System: AMES SALMONELLA TYPHIMURIUM, Strain/Indicator: TA100, Metabolic Activation: NONE, Method: STANDARD PLATE
[2] = Test System: AMES SALMONELLA TYPHIMURIUM, Strain/Indicator: TA98, Metabolic Activation: NONE, Method: STANDARD PLATE
[3] = Test System: AMES SALMONELLA TYPHIMURIUM, Strain/Indicator: TA1535, Metabolic Activation: NONE, Method: STANDARD PLATE

O=[As]O
mutagenic call (End Point: IN VITRO CHROMOSOMAL ABERRATIONS, Test System: CHINESE HAMSTER OVARY (CHO), Metabolic Activation: NONE): active; positive (structural changes: breaks, exchanges, endoreduplication) | mutagenic call (End Point: IN VITRO CHROMOSOMAL ABERRATIONS, Test System: HUMAN FIBROBLAST (HFW), Metabolic Activation: NONE): active; positive (structural changes: breaks, fusion) | mutagenic call (End Point: IN VITRO CHROMOSOMAL ABERRATIONS, Test System: HUMAN LYMPHOCYTES, Metabolic Activation: NONE, Method: FISH): active; positive (hyperdiploidy) | mutagenic call (End Point: IN VITRO CHROMOSOMAL ABERRATIONS, Test System: V79-C13 CHINESE HAMSTER CELLS, Metabolic Activation: NONE): inactive; negative | mutagenic call (End Point: IN VITRO MICRONUCLEUS, Test System: CHINESE HAMSTER OVARY CELLS, Metabolic Activation: NONE): active; positive | mutagenic call (End Point: IN VITRO MICRONUCLEUS, Test System: CHINESE HAMSTER V-79, Metabolic Activation: NONE): active; positive | mutagenic call (End Point: IN VITRO MICRONUCLEUS, Test System: HUMAN FIBROBLASTS VH25 CELLS, Metabolic Activation: NONE): active; positive | mutagenic call (End Point: IN VITRO MICRONUCLEUS, Test System: V79-C13 CHINESE HAMSTER CELLS, Metabolic Activation: NONE): active; positive | mutagenic call (End Point: In vitro chromosomal aberrations, Test System: Human peripheral lymphocytes, Metabolic Activation: None): active; positive | mutagenic call (End Point: In vitro micronucleus, Test System: Human peripheral lymphocytes, Metabolic Activation: None): active; positive | mutagenic call (End Point: In vivo micronucleus, Test System: Bone marrow polychromatic erythrocytes, Species: Mouse, Strain/Sex: C57BL/6J/Han/Male, Route: Oral): active; positive | mutagenic call (Test System: AMES SALMONELLA TYPHIMURIUM, Strain/Indicator: TA102, Metabolic Activation: NONE, Method: STANDARD PLATE): inactive; negative | mutagenic call (Test System: MOUSE LYMPHOMA, Strain/Indicator: L5178Y (TK+/TK-), Metabolic Activation: NONE, Method: SUSPENSION/PLATE): active; positive | mutagenic call (Test System: Mouse lymphoma, Strain/Indicator: L5178Y (TK+/TK-), Metabolic Activation: None, Method: Microwell): active; positive (statistically significant at 2 highest doses)

COc1nsc2cc(OCC3CO3)ccc12 (stereo unspecified)
mutagenic call [1]: active; positive

CCCCCCCCCCCCCCCC(=O)OC[C@H](O)[C@H]1OC(=O)C(O)=C1O
mutagenic call (Test System: AMES SALMONELLA TYPHIMURIUM, Strain/Indicator: TA97, Metabolic Activation: NONE, Method: PREINCUBATION): inactive; negative | mutagenic call (Test System: AMES SALMONELLA TYPHIMURIUM, Strain/Indicator: TA97, Metabolic Activation: RAT, LIVER, S-9, AROCLOR 1254, Method: PREINCUBATION): inactive; negative | mutagenic call [2]: inactive; negative | mutagenic call (Test System: AMES SALMONELLA TYPHIMURIUM, Strain/Indicator: TA98, Metabolic Activation: RAT, LIVER, S-9, AROCLOR 1254, Method: STANDARD PLATE): inactive; negative | mutagenic call [1]: inactive; negative | mutagenic call (Test System: AMES SALMONELLA TYPHIMURIUM, Strain/Indicator: TA100, Metabolic Activation: RAT, LIVER, S-9, AROCLOR 1254, Method: STANDARD PLATE): inactive; negative | mutagenic call (Test System: AMES SALMONELLA TYPHIMURIUM, Strain/Indicator: TA102, Metabolic Activation: NONE, Method: PREINCUBATION): inactive; negative | mutagenic call (Test System: AMES SALMONELLA TYPHIMURIUM, Strain/Indicator: TA102, Metabolic Activation: RAT, LIVER, S-9, AROCLOR 1254, Method: PREINCUBATION): inactive; negative | mutagenic call [3]: inactive; negative | mutagenic call (Test System: AMES SALMONELLA TYPHIMURIUM, Strain/Indicator: TA1535, Metabolic Activation: RAT, LIVER, S-9, AROCLOR 1254, Method: STANDARD PLATE): inactive; negative | mutagenic call (Test System: AMES SALMONELLA TYPHIMURIUM, Strain/Indicator: TA1537, Metabolic Activation: NONE, Method: STANDARD PLATE): inactive; negative | mutagenic call (Test System: AMES SALMONELLA TYPHIMURIUM, Strain/Indicator: TA1537, Metabolic Activation: RAT, LIVER, S-9, AROCLOR 1254, Method: STANDARD PLATE): inactive; negative | mutagenic call (Test System: AMES SALMONELLA TYPHIMURIUM, Strain/Indicator: TA1538, Metabolic Activation: NONE, Method: STANDARD PLATE): inactive; negative | mutagenic call (Test System: AMES SALMONELLA TYPHIMURIUM, Strain/Indicator: TA1538, Metabolic Activation: RAT, LIVER, S-9, AROCLOR 1254, Method: STANDARD PLATE): inactive; negative | mutagenic call (Test System: E. COLI, Strain/Indicator: WP2, Metabolic Activation: NONE, Method: STANDARD PLATE): inactive; negative | mutagenic call (Test System: E. COLI, Strain/Indicator: WP2, Metabolic Activation: RAT, LIVER, S-9, AROCLOR 1254, Method: STANDARD PLATE): inactive; negative

C=CCN1C2c3ccccc3-c3ccccc3C21 (stereo unspecified)
mutagenic call [1]: active; positive | mutagenic call (Test System: CHINESE HAMSTER V-79, Strain/Indicator: V-79/6-THIOGUANINE, Metabolic Activation: NONE, Method: STANDARD PLATE): active; positive

Cc1cccc(C(=O)Cl)c1
mutagenic call (Test System: AMES SALMONELLA TYPHIMURIUM, Strain/Indicator: TA98, Metabolic Activation: NONE, Method: PREINCUBATION): inactive; negative | mutagenic call (Test System: AMES SALMONELLA TYPHIMURIUM, Strain/Indicator: TA98, Metabolic Activation: RAT LIVER S-9, PCB, Method: PREINCUBATION): inactive; negative | mutagenic call (Test System: AMES SALMONELLA TYPHIMURIUM, Strain/Indicator: TA100, Metabolic Activation: NONE, Method: PREINCUBATION): inactive; negative | mutagenic call (Test System: AMES SALMONELLA TYPHIMURIUM, Strain/Indicator: TA100, Metabolic Activation: RAT LIVER S-9, PCB, Method: PREINCUBATION): active; positive | mutagenic call (Test System: AMES SALMONELLA TYPHIMURIUM, Strain/Indicator: TA104, Metabolic Activation: NONE, Method: PREINCUBATION): active; positive | mutagenic call (Test System: AMES SALMONELLA TYPHIMURIUM, Strain/Indicator: TA104, Metabolic Activation: RAT LIVER S-9, PCB, Method: PREINCUBATION): active; positive | mutagenic call (Test System: E.COLI, Strain/Indicator: WP2 UVRA, Metabolic Activation: NONE, Method: PREINCUBATION): active; positive | mutagenic call (Test System: E.COLI, Strain/Indicator: WP2 UVRA, Metabolic Activation: RAT LIVER S-9, PCB, Method: PREINCUBATION): active; positive

CC(=O)N(C)N=O
mutagenic call [3]: active; positive | mutagenic call (Test System: E. COLI, Strain/Indicator: WU3610, Metabolic Activation: NONE, Method: SUSPENSION/PLATE): active; positive

COc1ccc(/C=C/c2ccc([N+](=O)[O-])cc2)cc1
mutagenic call (Test System: AMES SALMONELLA TYPHIMURIUM, Strain/Indicator: TA98(NR), Metabolic Activation: NONE, Method: STANDARD PLATE): inactive; negative | mutagenic call (Test System: AMES SALMONELLA TYPHIMURIUM, Strain/Indicator: TA98 (NR), Metabolic Activation: S-9, Method: STANDARD PLATE): active; positive | mutagenic call [2]: active; positive | mutagenic call (Test System: AMES SALMONELLA TYPHIMURIUM, Strain/Indicator: TA98, Metabolic Activation: S-9, Method: STANDARD PLATE): active; positive | mutagenic call (Test System: AMES SALMONELLA TYPHIMURIUM, Strain/Indicator: TA100 (NR), Metabolic Activation: NONE, Method: STANDARD PLATE): inactive; negative | mutagenic call (Test System: AMES SALMONELLA TYPHIMURIUM, Strain/Indicator: TA100 (NR), Metabolic Activation: S-9, Method: STANDARD PLATE): inactive; negative | mutagenic call [1]: active; positive | mutagenic call (Test System: AMES SALMONELLA TYPHIMURIUM, Strain/Indicator: TA100, Metabolic Activation: S-9, Method: STANDARD PLATE): active; positive
